Reference: US20040192624A1, “Method for treating a disease, disorder or adverse effect caused by an elevated serum concentration of an UGT1A1 substrate” (priority 2003, published 2004)
Blank lines part the entries; values can stand above or below the compound they belong to.

How the values were obtained:
[1] = Ethinylestradiol pharmacokinetics alone and with ritonavir in healthy female volunteers; format: in vivo, human; settings: for t1/2: ethinylestradiol terminal phase, reported as harmonic mean
Protocol: This was an open-label, single-center study in healthy female volunteers who had not received an oral contraceptive for a minimum of six months prior to study start. Subjects received the first dose of oral contraceptive containing 50 μg of ethinyl estradiol on Day 1. […] On Day 15, 300 mg q12h was administered, 400 mg q12h was given on Day 16, and 500 mg q12h was administered thereafter. […] Blood samples for ethinylestradiol concentrations were collected for 48 h after each of the oral contraceptive doses.
Ethinylestradiol was supplied as Demulen@ 1/50-21 tablets (G.D. Searle & Co.) containing 50 μg of ethinylestradiol and 1 mg of ethynodiol diacetate and was administered at 8:00 a.m. on Day 1 and Day 29 with approximately 240 mL of water and within 15 minutes of a meal or snack.
Subjects were confined for 64 hours from Day -1 (day prior to the initial dose) through the first 48 hour blood collection (morning of Day 3) and for 64 hours from Day 28 through the second 48 hour blood collection (morning of Day 31). In addition, subjects came to the clinical testing unit as outpatients for meals, dosing and other study activities twice daily for a total of 14 consecutive days, starting on Day 15. Strenuous activity during confinement was not permitted. During confinement, subjects abstained from all food and beverages except for the scheduled meals and snacks provided in the study. Water was available ad libitum. All meals were standardized with regard to content during confinement. Breakfast, lunch, and dinner were served at approximately 7:30 a.m., 1:00 p.m. and 7:30 p.m. and snacks were provided at approximately 10:00 p.m., except on Days-1 and 28 when the snack was served at 9:45 p.m. An 8 hour fast was required prior to all blood collections for clinical laboratory analyses. The sequence of starting breakfast and dinner on each dosing day during confinement was maintained to the minute such that the time intervals relative to dosing were the same among all subjects.
Blood samples (7 mL) were collected for serum ethinyl estradiol concentrations at the following times relative to the dose on Day 1 and Day 29: prior to (0 h) and at 0.5, 1, 2, 3, 4, 6, 8, 10, 12, 18, 24, 30, 36, and 48 h post-dose. […] All plasma and serum samples were packed with dry ice and shipped to the analytical sites.
Analysis of serum samples for determination of ethinyl estradiol was performed at Pharmaco LSR, Richmond, Va. Ethinylestradiol serum concentrations were determined using a gas chromatography/mass spectrometry (GC/MS) method. 17α-ethinylestradiol and its corresponding isotopically labeled internal standard were isolated from human serum by buffering the serum to pH 8.6 and then extracting with an ethyl ether/methylene chloride mixture. The organic layer was exchanged into aqueous base, washed with hexane and then acidified and extracted with methylene chloride. The extract was dried with sodium carbonate, evaporated and derivatized. The derivatized extract was stored at −20° C. until analysis. Analysis was by capillary GC/MS using negative chemical ionization with selected ion monitoring. This method has been validated over 17α-ethinylestradiol concentrations ranging from 2.00 to 256 pg/mL for a 1.0 mL serum volume, with a minimum quantitation limit of 2.00 pg/mL.
Ethinylestradiol pharmacokinetic parameters were estimated following two single doses, on Day 1 and Day 29, using noncompartmental methods. The pharmacokinetic parameters were calculated using the intended sampling times; all samples were collected within 10% of intended sampling times. Maximal plasma concentration (Cmax,) and time to reach Cmax (Tmax) were obtained directly from individual concentration vs. time profiles. […]

[2] = system: bilirubin conjugation in human microsomes; settings: in vitro system of human microsomes; cited from earlier work
UGT1A1 isoform = molecular target: T1, UGT1A1 isoform (Homo sapiens, UniProt P22309); settings: human cells transfected with the UGT1A1 isoform; cited from earlier work
T1 sequence (P22309 26-533): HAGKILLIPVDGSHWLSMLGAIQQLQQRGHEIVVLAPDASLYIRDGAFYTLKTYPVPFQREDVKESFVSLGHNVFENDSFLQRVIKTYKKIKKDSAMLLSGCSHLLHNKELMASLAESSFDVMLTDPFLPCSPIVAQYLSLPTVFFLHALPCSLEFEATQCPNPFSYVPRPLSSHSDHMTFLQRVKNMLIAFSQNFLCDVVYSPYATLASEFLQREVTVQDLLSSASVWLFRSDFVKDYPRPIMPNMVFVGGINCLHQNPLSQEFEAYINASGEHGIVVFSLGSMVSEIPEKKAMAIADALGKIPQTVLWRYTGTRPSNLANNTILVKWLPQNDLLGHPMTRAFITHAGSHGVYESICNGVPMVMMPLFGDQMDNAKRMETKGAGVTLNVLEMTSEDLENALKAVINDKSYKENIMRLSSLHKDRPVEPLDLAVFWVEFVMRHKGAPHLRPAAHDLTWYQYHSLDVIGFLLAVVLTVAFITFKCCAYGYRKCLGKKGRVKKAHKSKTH

[3] = system: bilirubin-conjugating activity; settings: indinavir treatment; cited from earlier work
[4] = system: UDP-glucuronosyltransferase 1 family, member 1; test: Rat liver microarray (Affymetrix Rat U34), induction of probe sequences by ritonavir; format: in vivo, Sprague-Dawley rats; settings: 3-Day Studies
[5] = system: 3-methylcholanthrene-inducible UDP-glucuronosyltransferase; test: as above; format: in vivo, Sprague-Dawley rats; settings: 3-Day Studies, probe sequence 4 of 5, rat liver
[6] = system: UDP-glucuronosyltransferase 1A (UGT1A); test: Rat liver microarray, all 5 UGT1A probe sets; format: in vivo, Sprague-Dawley rats; settings: rats, dose levels of 100 mg/kg and higher, after 1 and 3 days of treatment
[7] = system: UDP glucuronosyltransferase, exon 1.; test: Rat liver microarray (Affymetrix Rat U34), induction of probe sequences by ritonavir; settings: 3-Day Studies, probe sequence 5 of 5, rat liver
UGT1A1 = test: Hepatic 17α-ethinylestradiol glucuronidation activity in liver microsomes of treated rats; settings: both male and female rats
[8] = female, human, serum, po, 50 μg

t1/2 ([1]; alone Day 1, with ritonavir 500 mg q12h Day 29): 17.0 h | t1/2 ([1]; alone Day 1, with ritonavir 500 mg q12h Day 29, listed as ethinyl estradiol): 17.0 h | half-life ([1]; female, human, serum, oral, 500 mg): 17 h | AUC(0-inf) [1, 8]: 1.67 ± 0.377 ng·h/mL | Cmax [1, 8]: 0.104 ± 0.024 ng/mL | Tmax ([1]; female, human, serum, po, 50 μg, serum ethinylestradiol after single oral contraceptive dose (50 μg), Mean ± SD, n = 23, alone Day 1, with ritonavir 500 mg q12h Day 29): ~4 h
SMILES: C#C[C@]1(O)CC[C@H]2[C@@H]3CCc4cc(O)ccc4[C@H]3CC[C@@]21C [Ethinylestradiol, 17α-ethinylestradiol]

SMILES: COC(=O)N[C@H](C(=O)N[C@@H](Cc1ccccc1)[C@@H](O)CN(Cc1ccc(-c2ccccn2)cc1)NC(=O)[C@@H](NC(=O)OC)C(C)(C)C)C(C)(C)C [atazanavir]
inhibition of bilirubin conjugation [2]: micromolar range | inhibition of bilirubin conjugation (UGT1A1 isoform): micromolar range

SMILES: CC(C)(C)NC(=O)[C@@H]1CN(Cc2cccnc2)CCN1C[C@@H](O)C[C@@H](Cc1ccccc1)C(=O)N[C@H]1c2ccccc2C[C@H]1O [indinavir]
cause of elevations in serum-unconjugated bilirubin [3]: direct inhibition of bilirubin-conjugating activity

UGT1A levels for all probe sets [6]: consistent increase
SMILES: CC(C)c1nc(CN(C)C(=O)N[C@H](C(=O)N[C@@H](Cc2ccccc2)C[C@H](O)[C@H](Cc2ccccc2)NC(=O)OCc2cncs2)C(C)C)cs1 [ritonavir]
Fold change, UDP-glucuronosyltransferase 1 family, member 1 ([4]; 75 mg/kg, probe sequence 1 of 5, rat liver): 1.56 | Fold change, UDP-glucuronosyltransferase 1 family, member 1 ([4]; 75 mg/kg, probe sequence 2 of 5, rat liver): 1.38 | Fold change, UDP-glucuronosyltransferase 1 family, member 1 ([4]; 75 mg/kg, probe sequence 3 of 5, rat liver): 1.57 | Fold change, UDP-glucuronosyltransferase 1 family, member 1 ([4]; 100 mg/kg, probe sequence 1 of 5, rat liver): 1.67 | Fold change, UDP-glucuronosyltransferase 1 family, member 1 ([4]; 100 mg/kg, probe sequence 2 of 5, rat liver): 1.46 | Fold change, UDP-glucuronosyltransferase 1 family, member 1 ([4]; 100 mg/kg, probe sequence 3 of 5, rat liver): 1.61 | Fold change, UDP-glucuronosyltransferase 1 family, member 1 ([4]; 125 mg/kg, probe sequence 1 of 5, rat liver): 1.54 | Fold change, UDP-glucuronosyltransferase 1 family, member 1 ([4]; 125 mg/kg, probe sequence 2 of 5, rat liver): 1.42 | Fold change, UDP-glucuronosyltransferase 1 family, member 1 ([4]; 125 mg/kg, probe sequence 3 of 5, rat liver): 1.65 | Fold change, 3-methylcholanthrene-inducible UDP-glucuronosyltransferase ([5]; 75 mg/kg): 1.97 | Fold change, 3-methylcholanthrene-inducible UDP-glucuronosyltransferase ([5]; 100 mg/kg): 2.26 | Fold change, 3-methylcholanthrene-inducible UDP-glucuronosyltransferase ([5]; 125 mg/kg): 2.25 | Fold change, UDP glucuronosyltransferase, exon 1. ([7]; 100 mg/kg): 3.96 | Fold change, UDP glucuronosyltransferase, exon 1. ([7]; 125 mg/kg): 5.06 | effect on glucuronidation of 17α-ethinylestradiol, a UGT1A1 substrate (UGT1A1): significantly increase
